≈ marks a conversion by molar mass, not a printed value.
How the values were obtained:
Type in all cases: functional
Staphylococcus aureus [1] = experiment: Antimicrobial activity against Staphylococcus aureus MTCC 96 assessed as growth inhibition after 24 hr by agar streak dilution technique; conditions: MTCC 96, 24 h
Escherichia coli [2] = experiment: Antimicrobial activity against Escherichia coli MTCC 739 assessed as growth inhibition after 24 hr by agar streak dilution technique; conditions: MTCC 739, 24 h
Escherichia coli [3] = experiment: Antimicrobial activity against Escherichia coli MTCC 739 assessed as diameter of growth inhibition zone after 24 hr by paper disk diffusion technique; note: test concentration or dose not given here
Pseudomonas aeruginosa [4] = experiment: Antimicrobial activity against Pseudomonas aeruginosa MTCC 741 assessed as diameter of growth inhibition zone after 24 hr by paper disk diffusion technique; note: test concentration or dose not given here
Staphylococcus aureus [5] = experiment: Antimicrobial activity against Staphylococcus aureus MTCC 96 assessed as diameter of growth inhibition zone after 24 hr by paper disk diffusion technique; note: test concentration or dose not given here
Candida albicans [6] = experiment: Antimicrobial activity against Candida albicans MTCC 183 assessed as growth inhibition after 48 hr by agar streak dilution technique; conditions: MTCC 183, 48 h
Pseudomonas aeruginosa [7] = experiment: Antimicrobial activity against Pseudomonas aeruginosa MTCC 741 assessed as growth inhibition after 24 hr by agar streak dilution technique; conditions: MTCC 741, 24 h
Aspergillus niger [8] = experiment: Antimicrobial activity against Aspergillus niger MTCC 282 assessed as growth inhibition after 48 hr by agar streak dilution technique; conditions: MTCC 282, 48 h
Bacillus subtilis [9] = experiment: Antimicrobial activity against Bacillus subtilis MTCC 430 assessed as diameter of growth inhibition zone after 24 hr by paper disk diffusion technique; note: test concentration or dose not given here
Bacillus subtilis [10] = experiment: Antimicrobial activity against Bacillus subtilis MTCC 430 assessed as growth inhibition after 24 hr by agar streak dilution technique; conditions: MTCC 430, 24 h
Aspergillus niger [11] = experiment: Antimicrobial activity against Aspergillus niger MTCC 282 assessed as diameter of growth inhibition zone after 24 hr by paper disk diffusion technique; note: test concentration or dose not given here
[12] = test system: Mycobacterium tuberculosis; experiment: Antituberculosis activity against Mycobacterium tuberculosis H37Rv assessed as growth inhibition after 12 to 28 days by L-J MIC method; conditions: for MIC: Mycobacterium tuberculosis, H37Rv
Candida albicans [13] = experiment: Antimicrobial activity against Candida albicans MTCC 183 assessed as diameter of growth inhibition zone after 24 hr by paper disk diffusion technique; note: test concentration or dose not given here

| Structure (SMILES) | MIC (Staphylococcus aureus [1]) [µg/mL] | MIC (Escherichia coli [2]) [µg/mL] | diameter of the inhibition zone (DIZ) (Escherichia coli [3]) [mm] | diameter of the inhibition zone (DIZ) (Pseudomonas aeruginosa [4]) [mm] | diameter of the inhibition zone (DIZ) (Staphylococcus aureus [5]) [mm] | MIC (Candida albicans [6]) [µg/mL] | MIC (Pseudomonas aeruginosa [7]) [µg/mL] | MIC (Aspergillus niger [8]) [µg/mL] | diameter of the inhibition zone (DIZ) (Bacillus subtilis [9]) [mm] | MIC (Bacillus subtilis [10]) [µg/mL] | diameter of the inhibition zone (DIZ) (Aspergillus niger [11]) [mm] | growth inhibition (GI) [12] [%] | MIC [12] [µg/mL] | diameter of the inhibition zone (DIZ) (Candida albicans [13]) [mm] |
| --- | --- | --- | --- | --- | --- | --- | --- | --- | --- | --- | --- | --- | --- | --- |
| O=C1C(Cl)C(c2cc3ccccc3nc2Cl)N1c1ccccc1 (stereo unspecified) | 100 (≈ 291 µM) | 100 (≈ 291 µM) | <10 | <10 | <10 | 100 (≈ 291 µM) | 100 (≈ 291 µM) | 100 (≈ 291 µM) | <10 | 100 (≈ 291 µM) | <10 | 90 | 500 (≈ 1460 µM) | <10 |
| Cc1ccccc1N1C(=O)C(Cl)C1c1cc2ccccc2nc1Cl (stereo unspecified) | 100 (≈ 280 µM) | 100 (≈ 280 µM) | <10 | <10 | 16 | 100 (≈ 280 µM) | 100 (≈ 280 µM) | 100 (≈ 280 µM) | <10 | 100 (≈ 280 µM) | <10 | 91 | 1000 (≈ 2800 µM) | <10 |
| Cc1cccc(N2C(=O)C(Cl)C2c2cc3ccccc3nc2Cl)c1 (stereo unspecified) | 100 (≈ 280 µM) | 100 (≈ 280 µM) | 14 | 16 | <10 | 100 (≈ 280 µM) | 100 (≈ 280 µM) | 100 (≈ 280 µM) | 18 | 100 (≈ 280 µM) | 20 | 90 | 500 (≈ 1400 µM) | <10 |
| Cc1ccc(N2C(=O)C(Cl)C2c2cc3ccccc3nc2Cl)cc1 (stereo unspecified) | 100 (≈ 280 µM) | 100 (≈ 280 µM) | 15 | 13 | 17 | 100 (≈ 280 µM) | 100 (≈ 280 µM) | 100 (≈ 280 µM) | 16 | 100 (≈ 280 µM) | <10 | 94 | 200 (≈ 560 µM) | 19 |
| O=C1C(Cl)C(c2cc3ccccc3nc2Cl)N1c1ccccc1[N+](=O)[O-] (stereo unspecified) | 100 (≈ 258 µM) | 100 (≈ 258 µM) | 22 | 21 | 20 | 100 (≈ 258 µM) | 62.5 (≈ 161 µM) | 50 (≈ 129 µM) | 21 | 62.5 (≈ 161 µM) | 22 | 92 | 250 (≈ 644 µM) | 20 |
| O=C1C(Cl)C(c2cc3ccccc3nc2Cl)N1c1cccc([N+](=O)[O-])c1 (stereo unspecified) | 25 (≈ 64.4 µM) | 62.5 (≈ 161 µM) | 22 | 22 | 25 | 100 (≈ 258 µM) | 50 (≈ 129 µM) | 50 (≈ 129 µM) | 21 | 50 (≈ 129 µM) | 26 | 93 | 100 (≈ 258 µM) | 19 |
| O=C1C(Cl)C(c2cc3ccccc3nc2Cl)N1c1ccc([N+](=O)[O-])cc1 (stereo unspecified) | 12.5 (≈ 32.2 µM) | 100 (≈ 258 µM) | 20 | 23 | 25 | 100 (≈ 258 µM) | 12.5 (≈ 32.2 µM) | 50 (≈ 129 µM) | 23 | 50 (≈ 129 µM) | 24 | 96 | 50 (≈ 129 µM) | 19 |
| O=C1C(Cl)C(c2cc3ccccc3nc2Cl)N1c1ccccc1Cl (stereo unspecified) | 62.5 (≈ 165 µM) | 62.5 (≈ 165 µM) | 21 | 20 | 24 | 100 (≈ 265 µM) | 50 (≈ 132 µM) | 100 (≈ 265 µM) | 24 | 12.5 (≈ 33.1 µM) | 19 | 97 | 62.5 (≈ 165 µM) | 18 |
| O=C1C(Cl)C(c2cc3ccccc3nc2Cl)N1c1cccc(Cl)c1 (stereo unspecified) | 25 (≈ 66.2 µM) | 62.5 (≈ 165 µM) | 21 | 22 | 25 | 62.5 (≈ 165 µM) | 25 (≈ 66.2 µM) | 62.5 (≈ 165 µM) | 23 | 12.5 (≈ 33.1 µM) | 25 | 98 | 50 (≈ 132 µM) | 20 |
